Test [1] relates to HIV-1 TAR RNA (biotinylated TAR 27-mer). Format: binding.
The target in a further test is HIV-1 TAR RNA (27-mer). The class given is binding.
The test system of test [2] is Tat ARM binding to HIV-1 TAR RNA.
Where [3] appears, read: pH 7.5, read-out: KD (apparent).

“And” between values parts separate entries of the source, which are not always exact repeats. Identical values can stand only once. “Also recorded” adds a separate entry of the source. Like-named read-outs stand apart in the source and are kept apart here. Where no end group is shown, it is not given here.

One may read the koff as the first-order rate constant of dissociation. Read a high koff as a short-lived complex. Broadly, the kon is a measure of how fast the partners come together. A low value points to slow association.

For “PRQRTPRGQ (also: sidechain bridge or staple (positions not given here)) [TB-CP-6.7a, two terminal cysteines cross-linked via a methylene bridge]”, in test [1], the koff worked out at 0.018 ± 0.0001 s⁻¹; the “koff × 10^−2” value is recorded as 1.90 10^−2 s^−1; the kon was 863.0 ± 59.0 M⁻¹ s⁻¹ and 803 ± 14 M⁻¹ s⁻¹. The Kd in test [1] (setting [3]) worked out at 22 µM. The Kd in test [1] (read-out: KD) turned out to be 23 ± 0.1 µM.

On to “RRRTPR (also: sidechain bridge or staple (positions not given here)) [TB-CP-6.9a, cyclic peptide (11-mer]”, for which, on HIV-1 TAR RNA (27-mer), the Kd turned out to be 5 ± 0.6 µM, the “ΔG°” value is -7.1 ± 0.02 kcal/mol, the “ΔH°” value is listed as −7.2 ± 0.2 kca/mol and the “−TΔS°” value was 0.1 ± 0.2 kcal/mol. On HIV-1 TAR RNA (27-mer) (pH 7.5), this substance showed a Kd of 5.3 ± 0.2 µM. Further, the “block of Tat ARM binding to TAR” value in test [2] is “formed a complex with TAR that occluded Tat-binding sites; also recorded: effectively block the interaction of TAR with the Tat ARM”. In test [1], the “TAR binding in presence of tRNA” value is given as “capable of binding under this condition”, the “fold difference in TAR-binding affinity” value is reported as ~6 -fold, the “fold increase in kon” value is reported as 8 -fold and the koff was 0.024 ± 0.0001 s⁻¹. Moreover, in test [1], the “koff × 10^−2” value is on record as 2.75 10^−2 s^−1 and the kon stood at 7463 ± 130 M⁻¹ s⁻¹. Moreover, in test [1] (0.625–20 μM), the “kon × 10^2” value is listed as 76.50 10^2 M^−1s^−1. For the same substance, the Kd in test [1] (setting [3]) was found to be 3.6 µM. Moreover, the Kd in test [1] (read-out: KD) amounted to 3.2 ± 0.8 µM.

The record behind these values is PMC7864049, “Co-crystal structures of HIV TAR RNA bound to lab-evolved proteins show key roles for arginine relevant to the design of cyclic peptide TAR inhibitors” (The Journal of Biological Chemistry, 2021).
